Values of other authors in patent publication US7351715B2, “Unit dosage forms for the treatment of herpes simplex” (ChronoRx, LLC, priority 1998, dated 2008).

Columns and labels:
HSV-1 [1] = settings: in vitro, supplementation with exogenous GSH
[2] = system: herpes simplex virus infections
HSV = settings: topical application, guinea pigs
[3] = rabbits and rats
HSV-1 [4] = settings: in vitro cell culture

## N[C@@H](CCC(=O)N[C@@H](CS)C(=O)NCC(=O)O)C(=O)O [GSH, Glutathione]
HSV-1 [1]
  inhibition of the replication of HSV-1: over 99%

## Cl.NCCCC[C@H](N)C(=O)O [L-lysine, L-lysine monohydrochloride]
[2]; at least one study
  effect on rate of healing or appearance of lesions: no effect on the rate of healing or the appearance of lesions
[2]; oral, study involving 52 subjects
  reduction of occurrence, severity and healing time: effective agent for the reduction of occurrence, severity and healing time
[2]; patients using L-lysine, one study
  herpes simplex patients with subjective improvement: 88%
HSV
  protection of skin from HSV inoculation: protected the skin from HSV inoculation

## O=S(=O)([O-])[O-].[Zn+2] [Zinc sulfate]
Herpes simplex virus
  inactivation of free herpes simplex virus: inactivates free herpes simplex virus

## O=c1[nH]c(=O)n([C@H]2C[C@H](O)[C@@H](CO)O2)cc1I [idoxuridine, 2′-Deoxy-5-idouridine]
[3]
  fetal malformations: implicated in fetal malformations in rabbits and rats

## O=c1c(O)c(-c2ccc(O)c(O)c2)oc2cc(O)cc(O)c12 [quercetin, 3,3′,4′,5,7-pentahydroxyflavone]
HSV-1 [4]
  intracellular viral replication: reduced intracellular viral replication
  reduction of infectivity of viruses including HSV-1: concentration-dependent reduction of infectivity
